# In patent publication US11453671B2, “Pyrazolopyrimidine inhibitors of JAK kinases and uses thereof” (Genentech, Inc., priority 2020, dated 2022):
# Tests used:
# [1] = target: T1, recombinant human JAK1 kinase domain protein (Residues 854-1154) (Homo sapiens, UniProt P23458); assay: JAK1 biochemical assay (microfluidic mobility shift, peptide phosphorylation); settings: 25 μM ATP, 1 nM total JAK1; read-out: Enzyme JAK1 Ki
# T1 construct: human JAK1 kinase domain protein (Residues 854-1154); purchased Proteros Biostructures GmbH (Martinsried, Germany); host or cells: insect cells
# Source text: JAK1 and JAK2 Biochemical Assays
# [2] = tested on: JAK1: IL-13-stimulated STAT6 phosphorylation in BEAS-2B cells; assay: P-STAT6 BEAS-2B+IL-13 Cell Assay; format: cell-based, human; settings: Homo sapiens, BEAS-2B, IL-13 stimulation, read-out: Cellular JAK1 PSTAT6 BEAS2B + IL13 IC50
# Outline: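 BEAS-2B cells in BEGM preincubated 1 h at 37 °C with 10-point, 1:2 compound dilutions, then stimulated 15 min with IL-13 (250 ng/mL stock). Lysate pSTAT6 (Tyr641) captured on total-STAT6 antibody and read by MSD electrochemiluminescence; IC50 from four-parameter logistic fit.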
# [3] = Cell cytotoxicity assay HEK-293T (CellTiter-Glo, 72 hours); format: cell-based; settings: human, HEK-293T cells, read-out: Cytotox K-293 EC50
# Source text: (§1) Cytotoxicity assays. Hepatocyte toxicity, general cytotoxicity or cytotoxicity of unknown mechanism is an undesirable feature for a potential drug, including inhaled drugs. It may be of benefit for an inhaled JAK1 or JAK1/JAK2 inhibitor to have low intrinsic cytotoxicity against various cell types. Typical cell types used to assess cytotoxicity include both primary cells such as human hepatocytes, and proliferating established cell lines such as Jurkat and HEK-293. […] Methods of measuring cytotoxicity are known in the art. In some embodiments, compounds described herein were tested as follows:
# (§2) (a) Jurkat and HEK293T cells were maintained at a sub confluent density in T175 flasks. Cells were plated at 450 cells/45 μl medium in Greiner 384 well black/clear tissue culture treated plates. (Greiner Catalog #781091). After dispensing cells, plates were equilibrated at room temperature for 30 minutes. After 30 minutes at room temperature, cells were incubated overnight at 37° C. in a CO2 and humidity controlled incubator. The following day, cells were treated with compounds diluted in 100% DMSO (final DMSO concentration on cells=0.5%) with a 10 point dose-response curve with a top concentration of 50 μM. Cells and compounds were then incubated for 72 hours overnight at 37° C. in a CO2 and humidity controlled incubator. After 72 hours of incubation, viability was measured using CellTiterGlo® (Promega Catalog #G7572) to all wells. After incubation at room temperature for 20 minutes, plates were read on EnVision™ (Perkin Elmer Life Sciences) using luminescence mode;
# (§3) A549 (ATCC® CCL-185™), Jurkat clone E6-1 (ATCC® TIB-152™) and HEK-293T (ATCC® CRL-1573™) cells maintained at a sub-confluent density in T175 flasks were used. Cells in exponential growth phase were plated (450 cells in 45 μL of medium) in Greiner 384-well black/clear tissue culture treated plates (Greiner Catalog No. 781091). After dispensing cells, plates were allowed to equilibrate at room temperature for 30 minutes, after which time the cell plates were placed overnight in a 37° C. CO2 and humidity-controlled incubator. The following day, cells were treated with test agent diluted in 100% DMSO (0.5% final DMSO concentration on cells) with a 10-point titration and a top concentration of 50 μM. Cells and compounds were then incubated for 72 hours in a 37° C. CO2 and humidity-controlled incubator, after which time cell viability was measured by adding CellTiter-Glo® (Promega G7572) reagent to all wells. Plates were incubated at room temperature for 20 minutes and then the well luminescence was read on an EnVision plate reader (Perkin Elmer Life Sciences).
# [4] = Cell cytotoxicity assay Jurkat (CellTiter-Glo, 72 hours); format: cell-based; settings: human, Jurkat clone E6-1 cells, read-out: Cytotox Jurkat EC50
# Source text: as §1, §2, §3
# [5] = Table 3, 72 hours, top concentration of 50 μM
# [6] = Table 4, methyl-desmethyl analog pairs
# T1 sequence (P23458 854-1154): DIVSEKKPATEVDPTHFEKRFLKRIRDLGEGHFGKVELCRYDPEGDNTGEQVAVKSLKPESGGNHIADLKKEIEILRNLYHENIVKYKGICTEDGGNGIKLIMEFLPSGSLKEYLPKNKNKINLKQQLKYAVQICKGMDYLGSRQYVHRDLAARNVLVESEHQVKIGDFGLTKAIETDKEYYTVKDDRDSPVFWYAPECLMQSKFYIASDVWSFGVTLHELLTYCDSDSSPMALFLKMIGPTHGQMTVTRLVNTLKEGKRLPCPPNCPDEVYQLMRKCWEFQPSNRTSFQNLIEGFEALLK
Compound,Ki [1] [nM],IC50 [2] [nM],"EC50 at 72 h [3, 5] [nM]","EC50 at 72 h [4, 5] [nM]","EC50 at 72 h [3, 6] [nM]","EC50 at 72 h [4, 6] [nM]"
"CN(C)CCS(=O)(=O)c1ccc(OC(F)F)c(-c2nn(C)cc2NC(=O)c2cnn3cccnc23)c1 [Example 7, N-[3-[2-(difluoromethoxy)-5-[2-(dimethylamino)ethylsulfonyl]phenyl]-1-methyl-pyrazol-4-yl]pyrazolo[1,5-a]pyrimidine-3-carboxamide]",0.88,32,6900,2100,,
"Cn1cc(NC(=O)c2cnn3cccnc23)c(-c2cc(S(=O)(=O)CCCO)ccc2OC(F)F)n1 [Example 63, N-[3-[2-(difluoromethoxy)-5-(3-hydroxypropylsulfonyl)phenyl]-1-methyl-pyrazol-4-yl]pyrazolo[1,5-a]pyrimidine-3-carboxamide]",0.58,71,20000,35000,,
"Cn1cc(NC(=O)c2cnn3cccnc23)c(-c2cc(S(=O)(=O)c3ccn(C)c(=O)c3)ccc2OC(F)F)n1 [Example 44, N-[3-[2-(difluoromethoxy)-5-[(1-methyl-2-oxo-4-pyridyl)sulfonyl]phenyl]-1-methyl-pyrazol-4-yl]pyrazolo[1,5-a]pyrimidine-3-carboxamide]",0.52,29,7000,11000,,
"Cn1cc(NC(=O)c2cnn3cccnc23)c(-c2cc(S(=O)(=O)C3CC3)ccc2OC(F)F)n1 [Example 22, N-[3-[5-cyclopropylsulfonyl-2-(difluoromethoxy)phenyl]-1-methyl-pyrazol-4-yl]pyrazolo[1,5-a]pyrimidine-3-carboxamide]",0.46,23,43000,≥ 50000,,
"N#CCn1cc(NC(=O)c2cnn3cccnc23)c(-c2cc(S(=O)(=O)C3CC3)ccc2OC(F)F)n1 [Example 45, N-[1-(cyanomethyl)-3-[5-cyclopropylsulfonyl-2-(difluoromethoxy)phenyl]pyrazol-4-yl]pyrazolo[1,5-a]pyrimidine-3-carboxamide]",0.71,35,≥ 50000,≥ 50000,,
"CN1CCCC1CCn1cc(S(=O)(=O)c2ccc(OC(F)F)c(-c3nn(C)cc3NC(=O)c3cnn4cccnc34)c2)cn1 (stereo in doubt) [Example 56, N-[3-[2-(difluoromethoxy)-5-[1-[2-[(2R)-1-methylpyrrolidin-2-yl]ethyl]pyrazol-4-yl]sulfonyl-phenyl]-1-methyl-pyrazol-4-yl]pyrazolo[1,5-a]pyrimidine-3-carboxamide]",0.71,56,10000,24000,,
"Cn1cc(NC(=O)c2cnn3cccnc23)c(-c2cc(S(=O)(=O)C3CCC3)ccc2OC(F)F)n1 [Example 2, N-[3-[5-cyclobutylsulfonyl-2-(difluoromethoxy)phenyl]-1-methyl-pyrazol-4-yl]pyrazolo[1,5-a]pyrimidine-3-carboxamide]",0.5,15,27500,38500,,

# Stronger by Ki [1], values ahead:
Ki [1] [nM],Compound,IC50 [2] [nM],"EC50 at 72 h [3, 5] [nM]","EC50 at 72 h [4, 5] [nM]","EC50 at 72 h [3, 6] [nM]","EC50 at 72 h [4, 6] [nM]"
0.43,"C[C@H](O)CS(=O)(=O)c1ccc(OC(F)F)c(-c2nn(C)cc2NC(=O)c2cnn3cccnc23)c1 (stereo in doubt) [Example 15, N-[3-[2-(difluoromethoxy)-5-[rac-(2S)-2-hydroxypropyl]sulfonyl-phenyl]-1-methyl-pyrazol-4-yl]pyrazolo[1,5-a]pyrimidine-3-carboxamide]",20,25000,35000,,
0.24,"COc1cccc(S(=O)(=O)c2ccc(OC(F)F)c(-c3nn(C)cc3NC(=O)c3cnn4cccnc34)c2)c1 [Example 12, N-[3-[2-(difluoromethoxy)-5-(3-methoxyphenyl)sulfonyl-phenyl]-1-methyl-pyrazol-4-yl]pyrazolo[1,5-a]pyrimidine-3-carboxamide]",18,36000,≥ 50000,,
0.22,"Cn1cc(NC(=O)c2cnn3cccnc23)c(-c2cc(S(C)(=O)=O)ccc2OC(F)F)n1 [Example 17, N-[3-[2-(difluoromethoxy)-5-methylsulfonyl-phenyl]-1-methyl-pyrazol-4-yl]pyrazolo[1,5-a]pyrimidine-3-carboxamide]",14,7300,11000,7300,11000
0.16,"CNS(=O)(=O)c1ccc(OC(F)F)c(-c2nn(C)cc2NC(=O)c2cnn3cccnc23)c1 [Example 26, N-[3-[2-(difluoromethoxy)-5-(methylsulfamoyl)phenyl]-1-methyl-pyrazol-4-yl]pyrazolo[1,5-a]pyrimidine-3-carboxamide]",11,5800,12000,,
